Experimental data published in patent US20220402900A1, “1,2,4-OXADIAZOL-5-ONE DERIVATIVES FOR THE TREATMENT OF CANCER” (Basilea Pharmaceutica International AG, priority 2019, published 2022).

How the values were obtained:
[1] = biological target: T1, human TEAD2 (amino acids 217-447) (Homo sapiens, UniProt Q15562); assay: Thermal shift assay (TSA); assay type: binding; conditions: 3 μM recombinant TEAD2, compound 7 μM, shift vs DMSO control
T1 construct: human TEAD2 (amino acids 217-447); His-tag (N); purchased Proteros biostructures PR-0365; host or cells: E. coli
T1 sequence (Q15562 217-447): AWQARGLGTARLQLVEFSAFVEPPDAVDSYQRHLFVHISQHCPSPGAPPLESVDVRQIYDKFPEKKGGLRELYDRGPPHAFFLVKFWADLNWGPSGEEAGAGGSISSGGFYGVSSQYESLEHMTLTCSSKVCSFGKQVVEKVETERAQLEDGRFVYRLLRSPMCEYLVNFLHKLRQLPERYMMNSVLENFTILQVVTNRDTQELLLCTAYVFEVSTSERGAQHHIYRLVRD

[2] = tested on: TEAD reporter gene activity; assay: TEAD reporter gene assay (MCF7 TEAD reporter cell line); assay type: cell-based; conditions: Homo sapiens; TEAD luciferase reporter in MCF7 cells, 24 hours; read-out: IC50 TEAD RGA (converted)
[3] = tested on: NCI-H226 xenografts; assay: NCI-H226 tumor xenograft efficacy study; assay type: in vivo; conditions: day 62, NCI-H226 xenografts in BALB/c nude mice
Method: Female BALB/c nude mice (GemPharmatech Co., Ltd) were subcutaneously inoculated with 10×10^6 NCI-H226 tumor cells (ATCC, CRL-5826) in 0.2 mL of PBS mixed with matrigel (1:1) (Corning). Randomization into six groups (n=8 animals per group) was performed when the mean tumor size reached approximately 150 (100-200) mm^3, after which drug treatments were started. Animals were dosed daily orally at the specified concentrations using an oral-gavage needle. The dosing volume was 10 mL/kg per mouse, with a volume adjusted to the mouse body weight. The vehicle control (water containing 0.5% hydroxypropyl methyl cellulose (Sigma-Aldrich, #H3785) and 0.5% Tween 80 (Sigma-Aldrich, #P1754) was administered in the same way. Tumor volumes were measured twice weekly in two dimensions using a caliper, and the volume was expressed in mm^3 using the formula “V=(L×W^2)/2”, where V is the tumor volume, L is the tumor length (the longest tumor dimension) and W is the tumor width (the longest tumor dimension perpendicular to L).
Animal protocols were reviewed and approved by the Institutional Animal Care and Use Committee (IACUC) at CrownBio. During the study, the care and use of animals was conducted in accordance with the regulations of the Association for Assessment and Accreditation of Laboratory Animal Care (AAALAC).

[4] = tested on: TEAD-dependent PD marker CTGF; assay: MSTO-211H tumor xenograft pharmacodynamic (PD) study; assay type: in vivo, mice; conditions: 250 mg/kg po qd×8, MSTO-211H tumors isolated 3 hours after last dose
Method: Female CB. 17 SCID mice (Charles River) were subcutaneously inoculated with 5×10^6 MSTO-211H tumor cells (ATCC, CRL-2081) in 0.1 mL of PBS mixed with matrigel (1:1) (BD Biosciences). Randomization into two groups was performed when the mean tumor size reached approximately 300-400 mm^3, after which drug treatments were started.
Animals were dosed daily orally at the specified concentrations of the compound of Example 2 or the compound of Example 11 using an oral-gavage needle. The dosing volume was 10 mL/kg per mouse, with a volume adjusted to the mouse body weight. The vehicle control (water containing 0.5% hydroxypropyl methyl cellulose (Sigma-Aldrich, #H9262) and 0.5% Tween 80 (Sigma-Aldrich, #P1754)) was administered in the same way.
PD marker analysis was performed on tumors that were collected from animals 3 hours after the last dose was given. […] The tumor protein lysates were prepared and analyzed using standard Western blot procedures. […] For quantitative PCR (qPCR) analyses, RNA was converted into cDNA following manufacturer's instructions (SuperScript™ III First-Strand Synthesis for RT-PCR, Invitrogen, #18080-051). […] The increase in fluorescence was analyzed with the instrument-specific software (Roche, LightCycler® 480 II), and a mean quantity was calculated from duplicate or triplicate PCRs for each sample using the ΔΔCt method.

O=c1[nH]c(-c2nccnc2Nc2ccc(C(F)(F)F)cc2)no1 [Example 2, 3-[3-[4-(trifluoromethyl)anilino]pyrazin-2-yl]-4H-1,2,4-oxadiazol-5-one]
ΔTm at 7 µM [1]: 10.6 °C
IC50 [2]: 41 nM
final ΔT/C ([3]; 50 mg/kg po qd): 0.27
final ΔT/C ([3]; 125 mg/kg po qd): 0.13
final ΔT/C ([3]; 250 mg/kg po qd): 0.017
decrease of CTGF mRNA to (normalized to actin mRNA) [4]: 28%
